21 molecules from PubChem BioAssay (NCI) can be followed below.

SMILES strings stand for the structures.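 Briefly, cells in 96-well plates were exposed to five compound concentrations for 48 h, and endpoints were estimated by linear interpolation. Definition used: TGI = concentration required for complete inhibition of growth.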 Peptide text beside a SMILES is read from it. * marks the point of attachment. Boc = CC(C)(C)OC(=O)*; OBn = c1ccc(CO*)cc1 Bounds are passed on as bounds.

Experiment in all cases: inhibition of tumour cell growth, NCI panel, 48 h
The subject of test [1] is 786-0 renal.
In test [2] the test system is A498 renal.
The test system of test [3] is CAKI-1 renal.
The test system of test [4] is HCT-116 colon.
For test [5], the system named is HL-60(TB) leukemia.
In test [6] the test system is IGROV1 ovarian.
In test [7] the test system is MOLT-4 leukemia.
In test [8] the test system is NCI-H460 lung.
The subject of test [9] is NCI/ADR-RES ovarian.
Test [10] relates to SF-295 CNS.
Test [11] relates to SNB-19 CNS.
For test [12], the system named is SNB-75 CNS.
The test system of test [13] is SR leukemia.
The test system of test [14] is TK-10 renal.

Regarding `CNn1c(C)n[nH]c1=O`, the TGI in [1], in test [2], in test [3], in [4], in test [5] and in test [6] was over 100 µM in each case. In addition, the TGI in test [7] is over 100 µM; in test [8], over 100 µM; in test [9], over 100 µM; in [10], over 100 µM; in [11] it was over 100 µM; in test [12] it was 85.1 µM. Moreover, the TGI in test [13] and in [14] was over 100 µM each time.

`CC(NC(=O)CNC(=O)OC(C)(C)C)C(=O)NC(Cc1ccccc1)C(=O)OCc1ccccc1` (stereo not drawn) (Boc-Gly-Ala-Phe-OBn; configuration not given here): the TGI in test [1], in [2], in test [3], in [4], in [5] and in test [6] was over 100 µM in each case. Besides, the TGI in [7], in test [9], in test [10], in test [11], in [12] and in [13] was over 100 µM in each case. The molecule also showed a TGI in test [14] of over 100 µM.

On to `OC(C/C(=N\N1CCCCC1)c1cccs1)(C(F)(F)F)C(F)(F)F`, for which the TGI in test [1], in test [2], in [3], in test [4], in test [5] and in test [6] was over 10 µM throughout. Further, the TGI in test [7], in test [8], in test [9], in [10], in test [11] and in [12] was over 10 µM each time. The TGI in [13] and in [14] was over 10 µM each time.

For `CCSC1=N/C(=C\c2ccco2)C(Cl)=N1`, the TGI in test [1], in test [2], in test [3], in test [4], in test [5] and in [6] was over 100 µM in each case. Moreover, the TGI in test [7], in [8], in test [9], in test [10], in [11] and in [12] was over 100 µM in each case. Moreover, the TGI in test [13] and in test [14] was over 100 µM each time.

On to `CCOC(=O)C1C(c2ccc(OC)cc2)c2c([nH][nH]c2=O)CC1(O)OCC` (stereo not drawn), for which the TGI in [1], in [2], in test [3], in test [4], in test [5] and in test [6] was over 100 µM each time. Besides, the TGI in test [7], in test [8], in test [9], in [10], in test [11] and in test [12] was over 100 µM in each case. Further, the TGI in [13] and in [14] was over 100 µM each time.

In the case of `NC(N)=N/N=C/c1c(-c2ccc([N+](=O)[O-])cc2)nc2n1CCS2`, the TGI in test [1] was 20.9 µM; in test [2], 42 µM; in test [3], 34.4 µM; in [4] it was 23 µM; in test [5], 25.1 µM; in [6], 38.6 µM. In addition, the TGI in test [7] is over 33 µM; in test [8], 32.3 µM; in test [9], over 100 µM; in [10], 36.7 µM; in test [11], 11.4 µM; in test [12], 14.5 µM. The TGI came out at 5.71 µM in [13] and 31.5 µM in test [14].

Turning to `O=C(O)c1ccc(Nc2nc3ccccc3nc2-c2cccs2)cc1`, the TGI in test [1], in test [2], in test [3], in test [4], in test [5] and in [6] was over 100 µM in each case. In addition, the TGI in test [7], in [8], in test [9], in test [10], in test [12] and in test [13] was over 100 µM each time. In addition, the TGI in [14] is over 100 µM.

In the case of `C=C1CC(C)(COc2ccc3ccc(=O)oc3c2)OC1=O` (stereo not drawn), the TGI in test [1] is 7.42 µM; in [2], 23.1 µM; in test [3] it was 7.84 µM; in test [4], 6.38 µM; in test [5], 2.57 µM; in test [6] it was 10.8 µM. In addition, the TGI in test [7] turned out to be 2.46 µM; in test [8] it was 22.9 µM; in [9], 11.2 µM; in test [10], 20.8 µM; in [11], 51.9 µM; in test [12] it was 22.6 µM. The TGI in test [13] is over 20.7 µM; in test [14], 4.29 µM.

Take `CC/C=C/C(=O)CC(O)(C(F)(F)F)C(F)(F)F`: the TGI in test [1] is over 100 µM; in test [2], 89.4 µM; in test [4], over 100 µM; in test [5] it was over 100 µM; in test [6], over 100 µM; in test [7], over 100 µM. Besides, the TGI in test [8], in test [9], in test [10], in test [11], in test [12] and in test [13] was over 100 µM in each case. The TGI in [14] was over 100 µM.

For the molecule `COc1ccc(C2=C(N)c3c(OC)cccc3C2=O)cc1`, the TGI in test [1], in test [2], in test [3], in test [4], in test [5] and in [6] was over 100 µM in each case. The TGI in [7], in test [8], in test [9], in test [10], in test [11] and in [12] was over 100 µM each time. This molecule also yielded a TGI in [13] of over 100 µM.

Regarding `O=[N+]([O-])c1ccc2[nH]ncc2c1Cl`, the TGI is over 100 µM in test [1]; over 100 µM in test [2]; 80.4 µM in test [4]; over 100 µM in [5]; 39.1 µM in test [6]; 72.6 µM in [7]. The TGI in test [8], in test [9], in test [10], in test [11], in test [12] and in [13] was over 100 µM throughout. Further, the TGI in [14] is over 100 µM.

As to `O=c1c2cccnc2cc(-c2ccccc2)n1CCO`, the TGI in [1], in test [2], in [4], in test [5], in test [6] and in [7] was over 100 µM in each case. Moreover, the TGI in test [8], in [9], in test [10], in [11], in test [12] and in test [13] was over 100 µM throughout. The same molecule returned a TGI in [14] of over 100 µM.

For the molecule `CCOC(=O)[C@@H]1ON2O[C@H](OC3CCCC3(c3ccccc3)c3ccccc3)C[C@H]3OC(=O)[C@@H]1C32` (stereo partly drawn), the TGI in [1] was over 100 µM; in test [2] it was 95.9 µM; in test [3], 46 µM; in test [4] it was over 100 µM; in [5], 59.1 µM; in test [6] it was over 100 µM. For the same molecule, the TGI in [7] is over 100 µM; in [8], over 100 µM; in [9], over 100 µM; in test [10], over 100 µM; in test [12], over 100 µM; in test [13], 99.2 µM. Also, in [14], the TGI was over 100 µM.

With `NC1=NN(c2ccccc2)C2(O)c3ccncc3C3=NN(c4ccccc4)C(=O)C132` (stereo not drawn), the TGI in [1], in test [2], in [3], in test [4], in test [5] and in test [6] was over 100 µM each time. The TGI in [7], in test [8], in test [9], in test [10], in test [11] and in test [12] was over 100 µM each time. Moreover, the TGI in test [13] was over 100 µM.

On to `O=c1oc2ccccc2nc1/C=C(\O)c1ccc([N+](=O)[O-])cc1`, for which the TGI in test [1], in [2], in test [3], in [4], in [6] and in [7] was over 100 µM each time. Further, the TGI in test [8], in [9], in test [10], in test [11], in [12] and in [13] was over 100 µM each time. In [14], this molecule showed a TGI of over 100 µM.

`O=C(C[n+]1ccccc1)N=N/C(C(=O)Nc1c(Cl)c(O)c2ccccc2c1O)=C1/C(=O)Oc2cc(O)ccc2C1=O`: the TGI in [1] was over 100 µM; in [2], 57.5 µM; in test [3], 18.1 µM; in test [4] it was 12.1 µM; in test [5] it was over 100 µM; in [6] it was 14.7 µM. Also, the TGI in [7] was over 100 µM; in test [8], 8.36 µM; in [9] it was 85.1 µM; in test [10] it was 11.8 µM; in test [12] it was 39.4 µM; in test [13], 53.6 µM. In [14], this molecule yielded a TGI of over 100 µM.

As for `COC1=C(N2CC2)C(=O)c2nc3n(c2C1=O)CCC3`, the TGI in test [1] was 1.03 µM; in test [2], 2.86 µM; in test [4], 1.93 µM; in test [5], 0.595 µM; in test [6] it was 3.15 µM; in [7], 2.41 µM. Besides, the TGI stood at 2.42 µM in [8]; 3.53 µM in test [9]; 2.07 µM in test [10]; 2.92 µM in [11]; 3.57 µM in [12]; 16.9 µM in test [13]. In test [14], the TGI worked out at 7.08 µM.

For `CCOP(=O)(OCC)c1ccc(=O)[nH]c1-c1cccs1`, the TGI in test [1], in [2], in test [3], in test [4], in [6] and in test [7] was over 100 µM each time. Moreover, the TGI in test [8], in test [9], in [10], in test [11], in [12] and in test [13] was over 100 µM throughout. This molecule also registered a TGI in test [14] of over 100 µM.

Turning to `COC(=O)C1=Cc2cc(OC)c(O)cc2[C@@H](c2ccc(O)c(OC)c2)[C@@H]1C(=O)OC`, the TGI in [1], in test [2], in [4], in test [5], in test [6] and in test [7] was over 100 µM throughout. Also, the TGI in test [8], in test [9], in test [10], in test [11], in [12] and in test [13] was over 100 µM in each case.

With `COc1cc(NCc2ccc3nc(OC)c(OC)nc3c2)cc(OC)c1OC`, the TGI in test [1], in test [2], in test [3], in [4], in test [5] and in test [6] was over 100 µM each time. The TGI in test [7], in test [8], in test [9], in [10], in test [11] and in test [12] was over 100 µM throughout. The TGI in test [13] is over 100 µM.

Consider `c1ccc(Nc2nnc(Cn3ccc4ccccc43)s2)cc1`, for which the TGI is over 100 µM in test [1]; over 100 µM in test [2]; 70.6 µM in test [3]; over 100 µM in [4]; over 100 µM in test [6]; over 100 µM in test [7]. The TGI in test [8] was over 100 µM; in test [9], over 100 µM; in [10], 80.9 µM; in test [11], over 100 µM; in test [12], 82.8 µM; in test [13], over 100 µM. In addition, in test [14], the TGI is over 100 µM.
